From patent US20260234135A1, “CRYSTALLINE FORMS OR SALTS OF A DEUTERATED COMPOUND” (ALEBUND PHARMACEUTICALS (HONG KONG) LIMITED, priority 2023, published 2026)

Key:
[1] = tested on: rat model of hyperlipidemia induced by high cholesterol diet; test: Rat model of hyperlipidemia induced by high cholesterol diet (serum TG, NEFA); assay type: in vivo, Sprague-Dawley rats
Excerpt: 8.2.1 High cholesterol diet (ASHF4) was used to induce an animal model of hyperlipidemia in the SD rats.
8.2.2 The male SD rats were fed with high cholesterol diet (ASHF4, Dyet, China) for 14 days. On the day before the start of the administration (Day 0), the animals were divided into 5 groups based on body weights and serum indicators and were continually fed with the high-cholesterol diet. The treatment groups were orally dosed with either compound or vehicle while continuing the high-cholesterol diet for a total of 1 week. The animals were weighed daily before the treatment, and the compounds were given at 9:00-9:30 in the morning based on the body weight of the day.
8.2.3 Animal blood was collected, and serum was separated for the analysis of serum lipid indicators on the day before the treatment and at the end of the last day for the experiment.
8.2.4 Serum indicators of triglyceride (TG) and free fatty acid (NEFA) were determined by an automatic blood biochemical analyzer.

[2] = tested on: rat model of unilateral ureteral obstruction; test: Rat model of unilateral ureteral obstruction, renal injury; conditions: 0.2 mg/kg oral daily, 14 treatment days
Description: Housing temperature was maintained at 20-26° C. and humidity at 40%-60%. Rats were fed with a standard chow and allowed to access food and water ad libitum.
The formulation was prepared twice a week.
Vehicle or compounds were administrated by orally gavage daily. Unilateral ureteral obstruction was performed on the second day of compound treatment. Animals in model group, reference group and compound group underwent urethral ligation under isoflurane anesthesia one hour after receiving compound administration. A flank incision was cut to expose the left ureter, and a 4-0 surgical suture was used to perform two-point ligation to achieve urethral obstruction. Ureter was cut between the two ligation points. Animals in the control group were subjected to the same surgical treatment except the ligation and cut. After surgery, animals in each group continually received vehicle or compound for 12 more days, for a total of 14 treatment days.
Rats were sacrificed after 14 days' compound treatment. The obstructed kidney was weighed and collected for histology. The tissue samples were fixed with formalin, and then paraffin embedded. The embedded tissue was sectioned and stained with hematoxylin & eosin and Masson trichrome to assess kidney structure and fibrosis.
The multiple comparison was analyzed with the Kruskal-Wallis non-parameter test. […]

[3] = tested on: db/db type 2 diabetes model; test: db/db type 2 diabetes model (body weight, serum TG, random blood glucose)
Description: 45 Db/db mice were evenly divided into 5 groups before the initiation of treatment based on the body weights, serum triglyceride (TG) levels, and random blood glucose levels.
All animals were weighed daily before each dosing and treated daily for 14 consecutive days.
All the data was imported into an Excel file and presented as Mean±SEM. Graphpad Prism 7.0 software was used for data statistical analysis by One-way or Two-way ANOVA, with P<0.05 as the criterion of significant differences.

[4] = tested on: db/db type 2 diabetes model; test: Oral glucose tolerance test (OGTT) in db/db animals; assay type: in vivo, db/db mice
Description: At the end of the experiment, oral glucose tolerance tests were carried out on the db/db animals treated by different compounds. […] .

[5] = tested on: diabetic nephropathy model; test: Diabetic nephropathy pharmacodynamic model (uninephrectomized db/db mice); assay type: in vivo, db/db: BLKS male mice
Excerpt: At the age of 6 weeks, db/db mice were anesthetized with 2.5% […] and subjected to uninephrectomy with removal of right kidney. Buprenorphine was applied after surgery.
11.1.2 Procedure. Two weeks after surgery, db/db mice were randomly assigned into 5 groups. Wild type mice were used for the control animals. […] Compounds were orally administrated once per day for 10 weeks.
At the 5th and 9th week after compound administration, mice were placed in metabolic cages for urine collection. Albumin level was measured for 24 hr albumin excretion calculation. At the 10th week after treatment, the animals were sacrificed for kidney dissection. The kidney was fixed in 10% neutral buffed formalin, then paraffin-embedded for histopathological analysis. Glomerulosclerosis was assessed by evaluating glomerular basement membrane, mesangial expansion, nodular sclerosis and glomerulosclerosis. Severity was graded as follows: 0: normal; 1: Glomerular basement membrane thickening: isolated glomerular basement membrane thickening and only mild, nonspecific changes by light microscopy; 2: Mesangial expansion mild (IIa) or severe (IIb): glomeruli with mild or severe mesangial expansion but without nodular sclerosis or global glomerulosclerosis in more than 50% of glomeruli; 3: Nodular sclerosis: at least one glomerulus with nodular increase in mesangial matrix; 4: Advanced diabetic glomerulosclerosis: more than 50% global glomerulosclerosis with other clinical or pathological evidence that sclerosis is attributable to diabetic nephropathy. Renal tubular injury was scored as follows: 0: no obvious lesions; 1: up to 25% involvement of tubular lesion; 2: lesion in 25% to 50% of renal tubular; 3: 50% to 75% of renal tubular lesion and grade 4: >75% tubular lesion.
Graphpad 8.0 software was used for statistical analysis. The difference between the values were analyzed with one-way ANOVA. The difference between histopathological score was analyzed with Kruskal-Wallis nonparameter test. All values were compared with the group 2.

[6] = 7-day repeated oral gavage, body weights of ICR mice; assay type: in vivo; conditions: for Weight Gain (g) compared with Day 0: n = 10
Excerpt: 50 male ICR mice aged 6-8 weeks; source: Laboratory Animal Business Department, Shanghai Institute of Planned Parenthood Research.
After 3 days of acclimatization, ICR mice were grouped according to their body weights. The day of grouping is designated as Day 0. […] The animals were weighed and recorded daily.

[7] = 0.2 mg/kg and 0.6 mg/kg oral, after 7 days of treatment (Day 8)

[2H]C([2H])(Cc1nc(-c2ccccc2)oc1C)Oc1ccc(C[C@H](OC)C(=O)O)c2sccc12 [Compound 2]
Serum NEFA compared with the vehicle group [1, 7]: significantly reduce
Serum TG compared with the vehicle group [1, 7]: significantly reduce
Serum NEFA compared with Aleglitazar ([1]; 0.2 mg/kg, T-test, P<0.05): significantly reduce
Serum TG compared with Aleglitazar ([1]; 0.2 mg/kg, T-test, P<0.05): significantly reduce
serum TG, significance compared with the first group (vehicle), One-way ANOVA ([1]; Day 8, 0.2 mg/kg oral QDx7 days): *** (***p < 0.001)
serum TG, significance compared with the first group (vehicle), One-way ANOVA ([1]; Day 8, 0.6 mg/kg oral QDx7 days): *** (***p < 0.001)
Total score of renal focal lesions compared to the model group [2]: significantly improved
Serum TG, rank of effect among groups ([3]; 1 mg/kg (Group 6), Day 6 and Day 12): largest effect
statistical difference (p) of the blood glucose level between treatment group and vehicle group ([3]; 0.2 mpk, Day 0, db/db mice): p > 0.05
Serum TG levels compared with the vehicle group ([3]; Day 6 and Day 12, Aleglitazar 0.2 mg/kg, Compound 2 at different dosages): significantly lower
Random blood glucose reduction compared with the vehicle group ([3]; Day 7, 1 mg/kg): reached statistical significance
Average daily body weights compared with the vehicle group ([3]; Day 10 to Day 15, Aleglitazar 0.2 mg/kg, Compound 2 0.05, 0.2, 1 mg/kg): significantly higher
Random blood glucose lowering compared with the vehicle group ([3]; Day 14, 0.05 mg/kg): did not reach statistical significance
Random blood glucose lowering vs vehicle, compared with Day 7 ([3]; Day 14, 1 mg/kg): more pronounced effect of blood glucose lowering
Effect on lowering blood glucose compared with Aleglitazar ([3]; overall): slightly weaker effect
Level of lipid, free fatty acid and blood glucose compared with vehicle group ([3]; summary, all groups): significantly decreased
OGTT blood glucose compared with the vehicle group ([4]; 0.05 mg/kg (Group 4), all time points): trend of decrease but did not reach statistical significance
OGTT AUC0-120 min compared with the vehicle group ([4]; 0.2 mg/kg (Aleglitazar P<0.001; Compound 2 P<0.01)): significantly lower
OGTT AUC0-120 min compared with the vehicle group ([4]; 1 mg/kg, P<0.0001): significantly lower
OGTT AUC0-120 min compared with Aleglitazar ([4]; same dose level (0.2 mg/kg)): higher
OGTT blood glucose levels at each time point compared with the vehicle group ([4]; within 120 minutes, different dosages): significantly reduced
24-hour urinary albumin ([5]; 5th and 9th weeks after compound administration, 0.1, 0.3, 1 mg/kg oral once per day): significantly decreased
Glomerular damage and glomerular hypertrophy ([5]; 10 weeks treatment): suppressed the glomerular damage and ameliorate the glomerular hypertrophy
Renal tubular injury ([5]; all dosage levels): improved the tubular injury at some extend
Glomerular volume ([5]; high dose (1 mg/kg)): statistically significantly reduced
Glomerulosclerosis histopathological score ([5]; high dose (1 mg/kg)): statistically significantly reduced
Weight Gain (g) compared with Day 0 ([6]; 0.2 mg/kg oral QDx7 days, Day 1, ICR mice): 0.45 ± 0.28 g
Weight Gain (g) compared with Day 0 ([6]; 0.2 mg/kg oral QDx7 days, Day 2, ICR mice): 1.42 ± 0.22 g
Weight Gain (g) compared with Day 0 ([6]; 0.2 mg/kg oral QDx7 days, Day 3, ICR mice): 2.56 ± 0.23 g
Weight Gain (g) compared with Day 0 ([6]; 0.2 mg/kg oral QDx7 days, Day 4, ICR mice): 2.96 ± 0.23 g
Weight Gain (g) compared with Day 0 ([6]; 0.2 mg/kg oral QDx7 days, Day 5, ICR mice): 3.73 ± 0.34 g
Weight Gain (g) compared with Day 0 ([6]; 0.2 mg/kg oral QDx7 days, Day 6, ICR mice): 4.66 ± 0.39 g
Weight Gain (g) compared with Day 0 ([6]; 0.2 mg/kg oral QDx7 days, Day 7, ICR mice): 5.08 ± 0.42 g
Daily weight gain compared with the vehicle group ([6]; 0.2 mg/kg, throughout the study): no significant difference
Weight Gain (g) compared with Day 0 ([6]; 1 mg/kg oral QDx7 days, Day 1, ICR mice): 0.4 ± 0.17 g
Weight Gain (g) compared with Day 0 ([6]; 1 mg/kg oral QDx7 days, Day 2, ICR mice): 1.57 ± 0.26 g
Weight Gain (g) compared with Day 0 ([6]; 1 mg/kg oral QDx7 days, Day 3, ICR mice): 2.71 ± 0.19 g
Weight Gain (g) compared with Day 0 ([6]; 1 mg/kg oral QDx7 days, Day 4, ICR mice): 3.61 ± 0.19 g
Weight Gain (g) compared with Day 0 ([6]; 1 mg/kg oral QDx7 days, Day 5, ICR mice): 3.96 ± 0.29 g
Weight Gain (g) compared with Day 0 ([6]; 1 mg/kg oral QDx7 days, Day 6, ICR mice): 4.84 ± 0.4 g
Weight Gain (g) compared with Day 0 ([6]; 1 mg/kg oral QDx7 days, Day 7, ICR mice): 5.44 ± 0.36 g
Weight gain, significance compared with vehicle, One-way ANOVA ([6]; 1 mg/kg, Day 4): ** (**p < 0.01)
Average daily weight gain compared with the vehicle group ([6]; 1 mg/kg, Day 4 and 5): significantly higher
Weight gain, significance compared with vehicle, One-way ANOVA ([6]; 1 mg/kg, Day 5): * (* p < 0.05)
